Measured values: patent publication US20170042962A1, “AGENT FOR PREVENTING OR AM[…] ENDOTHELIAL MALFUNCTION” (KYOWA HAKKO BIO CO., LTD., priority 2012, published 2017)

Test system: HUVEC
Assay: NO production (nitrite, NO2, in culture supernatant by HPLC) after adding samples to HUVEC
Assay type: cell-based, human
Details: citrulline final concentration 0.3 mM, 24-hour culture, vs control (PBS)
Method: The cells were cultured in at 37° C., in 5% CO2 incubator, and used for experiment after 4 to 6 passages. Citrulline and reduced glutathione were obtained from Kyowa Hakko Bio.
A cell suspension (0.45 mL) with the adjusted initial cell concentration of 5×10^5 cells/mL was inoculated in a 24-well plate (IWAKI).
Media with the sole addition of solvent (PBS) were used as a control group. After 24-hour culture, the cell culture (100 μL) was centrifuged at 12,000 rpm for 10 minutes, and the concentration of nitrite (NO2), which is the stable NO metabolite, in culture supernatant was quantified by HPLC (ENO-20, EICOM).

## NC(=O)NCCC[C@H](N)C(=O)O [citrulline, L-citrulline]
  effect on NO production (nitrite concentration in culture supernatant): no effect
